As usually defined, the Ki is the equilibrium dissociation constant of an inhibitor or competing ligand from its target. As usually defined, the IC50 is the midpoint of a concentration-inhibition curve.

The values below come from publication PMC9769694, “Discovery of Two Inhibitors of the Type IV Pilus Assembly ATPase PilB as Potential Antivirulence Compounds” (Microbiology Spectrum, 2022).

Test [1] has as its system A. nosocomialis. In words: Growth in liquid culture. Format: cell-based, Acinetobacter nosocomialis. The following applies: up to 512 μM (highest tested), data not shown. An excerpt:
(§1) These include many bacteria with alarming prevalence for causing antibiotic-resistant infection ([12]). […] This is important because, for the development of antivirulence chemotherapies, the small molecules should not have an inhibitory effect on bacterial growth. Otherwise, they would select for resistance, just like antibiotics. From a chemical structure perspective, levodopa is 3,4-dihydroxyphenylalanine (Fig. 2), or phenylalanine with two hydroxyl groups. […] These preliminary studies of structure and activity relationships are consistent with benserazide and levodopa being specific inhibitors of PilB. As mentioned earlier, work with trifluoperazine ([25]) and P4MP4 ([26], [27]) has provided the proof of principle for antivirulence therapies with anti-T4P compounds. It is also encouraging that a compound targeting the adhesin function of the type 1 pilus of the uropathogenic E. coli (UPEC) ([47]) has moved to the clinical trial phase in the drug development pipeline ([48]).

Test [2] deals with M. xanthus. In words: Growth in liquid culture. Format: cell-based, Myxococcus xanthus. Particulars: up to 512 μM (highest tested), data not shown.
Text: as §1

In test [3] the target is CtPilB (Chloracidobacterium thermophilum, UniProt G2LDI3). In words: MANT-ATP binding to CtPilB (fluorescence). The following applies: for Ki: estimated by Cheng-Prusoff equation from MANT-ATP IC50, assuming competitive inhibition, read-out: Ki (inhibition constant); for IC50: fraction of MANT-ATP bound, fluorescence. On the procedure: To probe the mechanisms of inhibition, we examined benserazide and levodopa for their effects on the binding of PilB to the fluorescent ATP analog MANT-ATP ([28]).
Sequence of CtPilB (G2LDI3 entry or part of it): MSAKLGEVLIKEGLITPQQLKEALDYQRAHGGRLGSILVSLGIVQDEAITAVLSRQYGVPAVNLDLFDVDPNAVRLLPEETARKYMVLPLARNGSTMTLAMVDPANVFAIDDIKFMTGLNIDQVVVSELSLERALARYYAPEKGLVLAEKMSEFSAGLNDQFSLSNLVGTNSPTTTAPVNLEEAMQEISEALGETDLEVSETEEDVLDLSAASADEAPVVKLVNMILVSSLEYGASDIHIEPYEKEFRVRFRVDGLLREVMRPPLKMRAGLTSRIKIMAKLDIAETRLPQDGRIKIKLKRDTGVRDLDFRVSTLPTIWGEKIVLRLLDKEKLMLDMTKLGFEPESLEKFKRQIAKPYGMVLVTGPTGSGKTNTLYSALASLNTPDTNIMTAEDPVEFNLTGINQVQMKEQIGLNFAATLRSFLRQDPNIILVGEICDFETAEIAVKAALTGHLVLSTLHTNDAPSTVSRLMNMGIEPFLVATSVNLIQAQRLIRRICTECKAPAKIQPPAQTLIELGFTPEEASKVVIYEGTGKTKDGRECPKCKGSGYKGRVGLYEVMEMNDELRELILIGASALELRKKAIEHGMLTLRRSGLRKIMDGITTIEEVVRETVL
FIG 3 Benserazide and levodopa reduce MANT-ATP binding to CtPilB. Fluorescence was used to calculate the fraction of MANT-ATP bound to CtPilB. Experiments were performed in triplicates with samples containing constant concentrations of CtPilB and MANT-ATP with varying concentrations of (A) benserazide or (B) levodopa. The three different sets of colored dots represent averages from three independent experiments with error bars omitted for clarity. Best fits to isotherms with indicated IC50s are shown.
The effects of inhibitors on the ATPase activity of CtPilB and CtPilBΔN and the binding of MANT-ATP were determined as described previously ([28], [29]). Stock solutions were prepared by dissolving benserazide hydrochloride (Alfa Aesar) or levodopa (Spectrum Chemical Mfg. Corp.) in dimethyl sulfoxide (DMSO; Fisher Biotech). Next, 10× working stocks for given concentrations of an inhibitor were freshly prepared before their use in an experiment. GraphPad Prism v7.04 was used for curve fitting and Student’s t test was used for statistical analysis.

Test [4] deals with M. xanthus pilin (PilA) production. Nature of the test: Pilin production, dot blot of whole cells with anti-PilA antibodies. In kind it is cell-based, Myxococcus xanthus. Particulars: strain YZ603, whole cell dot blot. On the procedure:
Fig. 6A and B show a representative of the data from three biological experiments, each conducted with 4 technical replicates (R1 to R4).
Piliation levels of the M. xanthus strain YZ603 (ΔdifE) ([52]) were analyzed by dot-blotting with anti-PilA antibodies as previously described ([28]). This study included a fraction representing the “Basal” T4P levels for a given treatment. […] These fractions were used as controls and subtracted as the baseline in data analysis.

Test [5] concerns M. xanthus S motility. In words: T4P-mediated social (S) motility, colony expansion on soft agar. In kind it is cell-based, Myxococcus xanthus. The following applies: soft agar, strains YZ1674 (MxPilB) and YZ2232 (MC3PilB), 5 days, P < 0.05. An excerpt:
Benserazide and levodopa were examined to determine whether they could impact the T4P assembly function of PilB in vivo using M. xanthus as the model bacterium ([28]). […] Three M. xanthus strains were used for these experiments. Strain DK10416 lacks S motility because it is a pilB deletion (ΔpilB) mutant ([40]). The other two strains both assemble T4P and are proficient in S motility ([30]). Strain YZ1674 produces the wild-type (WT) M. xanthus PilB (MxPilB). YZ2232 expresses MC3PilB, a PilB chimera with the N terminus of MxPilB fused to the C-terminal ATPase domain of CtPilB ([30]). The PilB ATPase domains of MxPilB and MC3PilB are highly similar, with 66% shared identity and 77% similarity (Fig. S1).
FIG 5 Benserazide and levodopa inhibit T4P-mediated social (S) motility in Myxococcus xanthus. Expansion rates (cm/day) of the MxPilB (YZ1674) and the MC3PilB (YZ2232) strains on soft agar plates by S motility in the presence of (A and C) benserazide and (B and D) levodopa after 5 days of incubation. Results from three independent experiments are shown, each performed in quintuplicates with data points represented by dots of the same color. Horizontal black lines represent overall averages. Expansion rates were normalized by subtracting that of the ΔpilB strain, which has no S motility (also see Fig. S4). Asterisks (*) indicate that the values at the indicated concentrations are statistically different (P < 0.05) from those of the no-inhibitor control.
M. xanthus was grown and maintained at 32°C in Casitone-yeast extract (CYE) medium ([49]). Motility assays were conducted with strains DK10416 (ΔpilB) ([40]), YZ1674 (ΔpilB att::MxpilB) ([50]), and YZ2232 (ΔpilB att::MC3pilB) ([30], [51]) as previously described ([28]). One modification was that 10% India ink was included in the cell suspension to mark the initial spot on agar plates. All experiments were conducted in quintuplicates and the diameter of the initial spot, as marked by India ink, was subtracted for data analysis.

Take `NC(CO)C(=O)NNCc1ccc(O)c(O)c1O` (stereo not drawn) [benserazide]: in test [1], the “effect on growth in liquid culture” value is on record as “neither benserazide nor levodopa had any discernible effect on the growth”. Besides, the “effect on growth in liquid culture” value in test [2] is reported as “neither benserazide nor levodopa had any discernible effect on the growth”. Moreover, in test [3], the inhibition constant (Ki) was 2.27 µM and the half-inhibitory concentration (IC50) was 33.6 ± 0.5 µM. Further, the “effect on pilin production level” value in test [4] is on record as “neither compound had any detectable effect”. The “concentration giving significant inhibition of S motility” value in test [5] was at least 8 µM.
For the compound `N[C@@H](Cc1ccc(O)c(O)c1)C(=O)O` [levodopa, 3,4-dihydroxyphenylalanine], the “effect on growth in liquid culture” value in test [1] is reported as “neither benserazide nor levodopa had any discernible effect on the growth”. In addition, the “effect on growth in liquid culture” value in test [2] is recorded as “neither benserazide nor levodopa had any discernible effect on the growth”. Moreover, in test [3], the Ki was 3.4 µM and the IC50 was 50.5 ± 9.2 µM. Besides, in test [4], the “effect on pilin production level” value is on record as “neither compound had any detectable effect”. Besides, the “concentration giving significant inhibition of S motility” value in test [5] was at least 32 µM.
